According to ChEMBL document CHEMBL1201862, “PubChem BioAssay data set” (2004):
The source made the active and inactive calls.

Columns and labels:
Streptococcus = assay: Group A Streptococcus viability loss, dose response, counter-screen for streptokinase expression inhibitor project, luminescence, BacTiterGlo (AID 1915); type: functional, organism-based;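 note: potency for reduction of bacterial viability or growth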
Vero [1] = assay: cells; type: functional, cell-based; conditions: Chlorocebus sabaeus
Vero [2] = assay: cells; type: functional; conditions: Chlorocebus sabaeus
[3] = test system: Streptococcus sp. 'group A'; assay: growth inhibition of control SK(-) GAS strain, dose response, counter-screen for streptokinase expression inhibitor project, luminescence, kanamycin, BacTiterGlo, confirmation (AID 1900); type: functional, organism-based
[4] = target: Glucose-6-phosphate 1-dehydrogenase (Homo sapiens, UniProt P11413); assay: human G6PD enzyme inhibitors, dose response, selectivity assay for P. falciparum G6PD inhibitor project, biochemical, fluorescence (AID 504792); type: functional
Glucose-6-phosphate 1-dehydrogenase, sequence (P11413 whole entry): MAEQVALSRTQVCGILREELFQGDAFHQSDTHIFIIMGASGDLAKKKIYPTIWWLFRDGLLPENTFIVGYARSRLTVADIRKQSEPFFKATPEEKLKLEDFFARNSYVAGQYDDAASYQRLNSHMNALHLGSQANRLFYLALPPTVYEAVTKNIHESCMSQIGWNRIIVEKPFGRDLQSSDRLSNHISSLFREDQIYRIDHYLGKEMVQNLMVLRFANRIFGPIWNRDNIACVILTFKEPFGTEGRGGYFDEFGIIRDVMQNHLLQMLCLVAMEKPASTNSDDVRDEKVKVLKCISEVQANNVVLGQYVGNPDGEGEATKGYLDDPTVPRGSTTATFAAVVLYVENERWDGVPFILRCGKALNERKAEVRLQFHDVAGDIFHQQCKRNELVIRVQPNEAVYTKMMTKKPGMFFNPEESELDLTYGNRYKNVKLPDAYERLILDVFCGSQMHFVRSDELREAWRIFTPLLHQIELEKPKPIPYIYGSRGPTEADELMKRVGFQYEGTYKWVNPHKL

[5] = inhibitors of intracellular T. cruzi replication, confirmation, NIH3T3 host cells, beta-gal luminescence (AID 2044); type: functional, cell-based;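 note: intracellular parasites grown in NIH/3T3 mouse fibroblasts as host cells; luminescent beta-galactosidase reporter signal from transgenic T. cruzi replicating inside host cells; inhibitors lower the luminescence signal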
[6] = target: Luciferin 4-monooxygenase (Photinus pyralis, UniProt P08659); assay: firefly luciferase enzyme inhibitors, dose response, biochemical, luminescence (AID 1891)
Luciferin 4-monooxygenase, sequence (P08659 whole entry): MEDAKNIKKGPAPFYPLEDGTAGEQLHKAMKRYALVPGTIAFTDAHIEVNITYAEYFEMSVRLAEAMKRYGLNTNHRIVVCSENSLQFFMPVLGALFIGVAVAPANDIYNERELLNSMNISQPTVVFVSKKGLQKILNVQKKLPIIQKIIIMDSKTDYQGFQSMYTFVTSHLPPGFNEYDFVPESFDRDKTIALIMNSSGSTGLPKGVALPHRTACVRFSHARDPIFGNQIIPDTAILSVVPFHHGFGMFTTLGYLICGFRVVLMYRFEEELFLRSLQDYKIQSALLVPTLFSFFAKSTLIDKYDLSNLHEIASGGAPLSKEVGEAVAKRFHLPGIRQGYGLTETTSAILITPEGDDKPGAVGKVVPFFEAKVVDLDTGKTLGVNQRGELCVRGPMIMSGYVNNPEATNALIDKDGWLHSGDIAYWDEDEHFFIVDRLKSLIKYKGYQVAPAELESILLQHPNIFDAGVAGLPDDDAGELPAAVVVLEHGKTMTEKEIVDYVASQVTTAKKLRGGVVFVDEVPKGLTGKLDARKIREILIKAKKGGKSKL

Streptokinase A = target: T1, Streptokinase A (Streptococcus pyogenes serotype M1, UniProt P10520); assay: S. pyogenes streptokinase expression inhibitors, potency, dose response, plasminogen activation absorbance, OD405 (AID 1914); type: functional, Streptococcus pyogenes M1 GAS;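 note: secreted streptokinase activity via plasminogen activation per viability signal from cell pellet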
T1 sequence (P10520 whole entry): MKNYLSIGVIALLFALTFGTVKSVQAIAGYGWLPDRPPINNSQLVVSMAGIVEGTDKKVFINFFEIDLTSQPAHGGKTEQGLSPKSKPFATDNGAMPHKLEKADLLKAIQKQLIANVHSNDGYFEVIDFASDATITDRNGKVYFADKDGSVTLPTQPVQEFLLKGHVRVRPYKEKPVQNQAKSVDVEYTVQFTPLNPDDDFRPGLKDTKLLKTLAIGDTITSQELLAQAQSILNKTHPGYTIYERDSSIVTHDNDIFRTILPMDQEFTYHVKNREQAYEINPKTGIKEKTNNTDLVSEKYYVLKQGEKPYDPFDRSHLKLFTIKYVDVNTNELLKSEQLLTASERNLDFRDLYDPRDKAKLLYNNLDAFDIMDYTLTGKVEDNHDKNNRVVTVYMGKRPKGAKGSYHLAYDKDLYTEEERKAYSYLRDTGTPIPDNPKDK

HEK293 = assay: inhibitors of LMP1-driven NF-kB reporter, dose response, cell-based, HEK293, luciferase, cherry-pick (AID 588343); type: functional; conditions: Homo sapiens
[7] = cytotoxicity toward NIH3T3 fibroblasts, dose response, counter-screen, cell-based, ATP luminescence, mouse fibroblasts (AID 2010); type: functional;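 note: cells exposed to compound for about 90 hours before reading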
[8] = Luminescence Cell-Based Dose Confirmation HTS to Identify Inhibitors of Platelet Dense Granule Release. [Related pubchem assays: 1663 (Primary HTS), 1678 (Summary of Project)]; type: functional
[9] = inhibitors of HIV Env-driven cell fusion, dose response, cherry-pick (AID 652057); type: functional, cell-based
[10] = Luminescence Cell-Based Dose Retest to Confirm Inhibitors of Cancer Stem Cells. [Related pubchem assays (depositor defined):AID2717, AID2721]; type: functional; conditions: Homo sapiens
[11] = inhibitors of clade B AD8 Env fusion, dose response, cell-based, cherry-pick (AID 652062); type: functional;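 note: luciferase signal from cell-cell fusion driven by HIV-1 clade B AD8 Env; potency is for inhibitors of fusion seen as a drop in luminescence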
[12] = off-target signal loss in HeLa-CEM21 co-culture – HeLa F-luc CTL cells, cherry-picked, counter-screen for HIV-1 Env fusion inhibitor project, dose response (AID 652040); type: functional, cell-based;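 note: potency for signal decrease marking cytotoxic or nonspecific inhibition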
[13] = CEM21 lymphoblast cell cytotoxicity, dose response, cytotoxicity control for viral fusion inhibitor project, CellTiter-Glo luminescence, cherry-picked (AID 652042); type: functional, cell-based;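 note: potency for signal decrease meaning cytotoxicity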
[14] = CRF-BP/CRF-R2 complex antagonists, dose response, cell-based, uHTS hits, 384-well (AID 651639); type: functional, Homo sapiens; conditions: read-out: IC50_Mean
[15] = target: T2, Corticotropin-releasing factor receptor 2/Corticotropin-releasing factor-binding protein (Homo sapiens, UniProt P24387+Q13324); assay: Dose Response confirmation of uHTS hits for small molecule antagonists of the CRF-binding protein and CRF-R2 receptor complex.; type: functional; conditions: read-out: IC50_Mean
T2 sequence (Q13324 whole entry): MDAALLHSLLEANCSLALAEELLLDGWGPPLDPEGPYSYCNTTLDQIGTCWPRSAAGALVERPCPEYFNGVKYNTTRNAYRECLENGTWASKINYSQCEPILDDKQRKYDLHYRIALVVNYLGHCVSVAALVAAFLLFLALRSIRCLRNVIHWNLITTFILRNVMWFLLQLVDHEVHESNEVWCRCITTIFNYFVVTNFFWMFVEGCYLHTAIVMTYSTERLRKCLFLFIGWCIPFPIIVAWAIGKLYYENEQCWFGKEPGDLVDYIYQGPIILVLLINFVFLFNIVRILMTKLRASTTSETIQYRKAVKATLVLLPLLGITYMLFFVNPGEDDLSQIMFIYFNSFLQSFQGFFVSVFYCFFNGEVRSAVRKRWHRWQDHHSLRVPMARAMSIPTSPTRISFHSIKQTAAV
T2 sequence (P24387 whole entry): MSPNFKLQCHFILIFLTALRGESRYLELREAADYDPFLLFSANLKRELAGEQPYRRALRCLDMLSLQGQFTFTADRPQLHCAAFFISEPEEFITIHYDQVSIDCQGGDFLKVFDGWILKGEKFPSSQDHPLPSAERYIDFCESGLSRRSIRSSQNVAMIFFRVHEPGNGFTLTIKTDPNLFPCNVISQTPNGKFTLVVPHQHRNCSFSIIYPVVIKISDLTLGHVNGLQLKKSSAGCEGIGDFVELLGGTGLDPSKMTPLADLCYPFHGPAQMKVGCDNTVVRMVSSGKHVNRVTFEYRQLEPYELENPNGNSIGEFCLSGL

[16] = target: T2, Corticotropin-releasing factor receptor 2/Corticotropin-releasing factor-binding protein; assay: activators of CRF receptor 2 with binding protein – uHTS hits, confirmation (AID 602473); type: functional; conditions: read-out: EC50_Mean
[17] = control 3'UTR Renilla luciferase suppression, dose response, counter-screen for Shn3 inhibitor project, cell-based, Clone20-Shn3RL, cherry-picked (AID 624133); type: functional
[18] = HepG2 cell cytotoxicity, dose response, cytotoxicity control for Shn3 inhibitor project, CellTiter-Glo, cherry-picked (AID 624134); type: functional, cell-based
[19] = Shn3 3'UTR reporter inhibitors, dose response, cell-based, Clone20 osteoblasts, firefly luciferase, cherry-picked (AID 624132); type: functional;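 note: firefly luciferase luminescence from reporter carrying the Shn3 3'UTR in osteoblasts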
[20] = target: Dual specificity tyrosine-phosphorylation-regulated kinase 1A (Rattus norvegicus, UniProt Q63470); type: biochemical, Homo sapiens

## COc1ccc(C(=O)NNC(=S)NC(=O)/C=C/c2cccs2)cc1
Streptococcus
  EC50: 4.2 µM (active)
Vero [1]
  IC50: > 25 µM (active)
Vero [2]
  CC50: > 25 µM (active)
[3]
  EC50: 0.802 µM (active)

## Cc1ccc(N2CC(C(=O)OCC(=O)c3ccc([N+](=O)[O-])cc3)CC2=O)cc1 (stereo not drawn)
[4]
  IC50: > 80 µM (inactive)

## Oc1c(N=NC(S)=Nc2ccccc2F)c2ccccc2n1Cc1cccc(Cl)c1
Streptococcus
  EC50: > 150 µM (not active)
[5]
  EC50: 0.676 µM (active)
[6]
  EC50: > 112 µM (not active)
Streptokinase A
  EC50: > 150 µM (not active)
HEK293
  AC50: 4.15 µM (active)
[7]
  EC50: 1.71 µM (active)
[8]
  EC50: > 112 µM (not active)
[3]
  EC50: 2.69 µM (active)

## CCOC(=O)c1cnc2ccc(OCC)cc2c1NCc1ccccc1OC
[9]
  AC50: 10.6 µM (active)
[10]
  AC50: 4.51 µM (active)
[11]
  AC50: 35.4 µM (active)
[12]
  AC50: 25.7 µM (active)
[13]
  AC50: 19.4 µM (active)

## CCCCOc1ccc(OC(=O)Nc2cc(Cl)ccc2OC)cc1
[14]
  IC50: > 20 µM (inactive)
[15]
  IC50: < 0.368 µM (active)
[16]
  EC50: > 53 µM (inactive)

## CCC1CSC(Nc2ccc(C(=O)/C=C/c3ccc(OC)c(OC)c3)cc2)=N1 (stereo not drawn)
[17]
  AC50: 6.23 µM (active)
Vero [1]
  IC50: 23.5 µM (active)
[18]
  AC50: 51.2 µM (active)
[19]
  AC50: 4.47 µM (active)
Vero [2]
  CC50: 18.1 µM (active)

## CC(=O)Nc1cccc(-c2cnc(N)c(C(=O)c3cccnc3)n2)c1
[20]
  AC50: 0.193 µM (active)
HEK293
  AC50: 21.4 µM (active)
